These results are taken from ChEMBL document CHEMBL1201862, “PubChem BioAssay data set” (2004).

Assay in all cases: NCI anticancer screen, dose series, 48 h
Test [1] concerns LOX IMVI.
Test [2] deals with HOP-92.
Test [3] has as its system RPMI-8226.
In test [4] the test system is HCC 2998.
The subject of test [5] is NCI-H226.
In test [6] the test system is HOP-62.
For test [7], the system named is UACC-257.
In test [8] the test system is TK-10.
In test [9] the test system is MDA-MB-435.
Test [10] has as its system UACC-62.
For test [11], the system named is M14.
Test [12] deals with SNB-75.
Test [13] deals with NCI-H522.
Test [14] concerns EKVX.
Test [15] deals with Malme-3M.
Test [16] has as its system CAKI-1.
Test [17] deals with MOLT-4.
In test [18] the test system is SK-MEL-2.
Test [19] has as its system HCT-15.

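Results reflect a 48-hour exposure of cells in 96-well plates to compound at five concentrations. Here, GI50 denotes the concentration required for 50% inhibition of growth.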 The source made the active and inactive calls. Cut-off read from the data, not from the text of the source: active = GI50 up to about 1.1 µM and inactive = higher. Where a SMILES comes first, the peptide text is derived from it. The star is where a group is joined. Cbz = O=C(OCc1ccccc1)*; Boc = CC(C)(C)OC(=O)*; tBu = CC(C)(C)*

As for `OC1(c2ccc(Cl)cc2)c2ccccc2C2=NCc3ccccc3CN21` (stereo not given), the GI50 in test [1] was 9.2 µM (inactive); in [2], 13.1 µM (inactive); in test [3], > 21.3 µM (inactive); in test [4] it was 2.18 µM (inactive); in [5], 5.47 µM (inactive); in [6], 6.47 µM (inactive). Further, the GI50 in [7] is 14.3 µM (inactive); in test [8] it was 14.6 µM (inactive); in test [9], 7.45 µM (inactive); in [10], 13.6 µM (inactive); in test [11], 2.96 µM (inactive); in test [12] it was 6.35 µM (inactive). Also, the GI50 in test [13] was 14.1 µM (inactive); in [14], 5.48 µM (inactive); in test [15], 13.9 µM (inactive); in test [16], 12.3 µM (inactive); in [17], 3.37 µM (inactive); in test [18] it was 1.2 µM (inactive). In [19], this compound showed a GI50 of 7.14 µM.
Consider `CC1OC(OC2C(O[C@H]3CC[C@@]4(C)C(=CC[C@H]5[C@@H]6C[C@@H]7O[C@]8(CC[C@@H](C)CO8)[C@@H](C)[C@@H]7[C@@]6(C)CC[C@@H]54)C3)OC(CO)C(OC3OC(CO)C(O)C3O)C2O)C(O)C(O)C1O` (stereo not given in full), for which the GI50 in test [1] was 0.521 µM (active); in test [2] it was 1.01 µM (active); in [3], 0.724 µM (active); in [4] it was 0.366 µM (active); in test [5], 0.867 µM (active); in test [6], 0.897 µM (active). In addition, the GI50 in [7] was 0.908 µM (active); in [8], 0.989 µM (active); in [9], 0.869 µM (active); in test [10], 0.805 µM (active); in test [11], 0.745 µM (active); in test [12] it was 0.724 µM (active). The GI50 is 0.995 µM (active) in [13]; 0.885 µM (active) in test [14]; 0.877 µM (active) in [15]; 0.867 µM (active) in test [16]; 0.785 µM (active) in test [17]; 1.01 µM (active) in [18]. Further, in [19], the GI50 is 0.895 µM.
For the compound `COC(=O)C(Cc1ccc2c(c1)CCCC2)Cc1cc2c(cc1C(O)OC)CCC2` (stereo not given), the GI50 in [1] is 30.4 µM (inactive); in test [2], 18.5 µM (inactive); in test [3] it was 27.9 µM (inactive); in [4] it was 57.9 µM (inactive); in [5], > 100 µM (inactive); in test [6], > 100 µM (inactive). In addition, the GI50 was 14.7 µM (inactive) in test [7]; 62.2 µM (inactive) in [8]; 38.2 µM (inactive) in test [9]; > 100 µM (inactive) in test [10]; 93.3 µM (inactive) in test [11]; > 100 µM (inactive) in [12]. The GI50 in test [13] is 50.1 µM (inactive); in test [14], 39.4 µM (inactive); in test [15], 38.1 µM (inactive); in [16], > 100 µM (inactive); in test [17], 58.9 µM (inactive); in test [18], > 100 µM (inactive). This compound had a GI50 in test [19] of 33.7 µM.
Regarding `O=C(NC1=NC2C=CC([N+](=O)[O-])=CC2S1)C(=O)Nn1c(S)nc2ccccc2c1=O` (stereo not given), the GI50 in [1] is 67.3 µM (inactive); in test [2], 29.4 µM (inactive); in test [3], 50.6 µM (inactive); in test [4], > 100 µM (inactive); in test [5] it was 18.8 µM (inactive); in test [6], > 100 µM (inactive). Further, the GI50 was > 100 µM (inactive) in test [7]; 63 µM (inactive) in [8]; > 100 µM (inactive) in [9]; 92 µM (inactive) in test [10]; > 100 µM (inactive) in test [11]; 47.1 µM (inactive) in test [12]. The GI50 is 47.3 µM (inactive) in test [13]; 33.7 µM (inactive) in [14]; 80 µM (inactive) in [15]; 40.4 µM (inactive) in [16]; 63 µM (inactive) in test [17]; > 100 µM (inactive) in test [18]. In test [19], this compound gave a GI50 of 21.2 µM.
Take `N#C[BH2-][n+]1ccc(C(=O)NNCC(F)(F)F)cc1`: the GI50 in test [1], in test [2], in test [3], in test [4], in test [5] and in test [6] was > 100 µM (inactive) each time. The GI50 in test [7], in test [8], in test [9], in test [10], in test [11] and in test [12] was > 100 µM (inactive) in each case. In addition, the GI50 in test [13], in [14], in test [15], in test [16], in test [17] and in [18] was > 100 µM (inactive) in each case. Further, the GI50 in test [19] is more than 100 µM.
With `CC(OC(C)(C)C)C(NC(=O)C(CCCCNC(=O)OC(C)(C)C)NC(=O)C(Cc1c[nH]c2ccccc12)NC(=O)C(Cc1ccccc1)NC(=O)OCc1ccccc1)C(=O)NC(Cc1ccccc1)C(=O)O` (stereo not given) (Cbz-FWK(Boc)T(tBu)F-OH; configuration not given here), the GI50 in test [1] is 29.4 µM (inactive); in test [2] it was > 100 µM (inactive); in test [3], 43.5 µM (inactive); in test [4], 30.8 µM (inactive); in [5], 37.3 µM (inactive); in [6], > 100 µM (inactive). Further, the GI50 is > 100 µM (inactive) in test [7]; > 100 µM (inactive) in test [8]; 40.5 µM (inactive) in [9]; 21 µM (inactive) in test [10]; > 100 µM (inactive) in test [11]; 15.7 µM (inactive) in [12]. Also, the GI50 was 27.9 µM (inactive) in test [13]; > 100 µM (inactive) in [14]; > 100 µM (inactive) in [15]; > 100 µM (inactive) in test [16]; 28.1 µM (inactive) in test [17]; 41.7 µM (inactive) in test [18]. In addition, the GI50 in [19] is 73.6 µM.
Consider `CC1=NN(c2ccccc2)C(=O)/C1=C1\SC(c2ccccc2)(c2ccccc2)c2ccccc21`, for which the GI50 in [1], in [2], in test [3], in [4], in test [5] and in [6] was > 100 µM (inactive) throughout. Moreover, the GI50 in test [7], in [8], in [9], in test [10], in test [11] and in test [12] was > 100 µM (inactive) throughout. For the same compound, the GI50 in [13], in test [14], in test [15], in test [16], in test [17] and in test [18] was > 100 µM (inactive) each time. Also, in [19], the GI50 is more than 100 µM.
For `O[C@@]1(C#Cc2ccc3c(c2)OCO3)CCC[C@H]1NCc1ccccc1`, the GI50 in [1] was 15.6 µM (inactive); in test [2] it was 13.7 µM (inactive); in [3], 24 µM (inactive); in test [4], 17.1 µM (inactive); in test [5], 15.9 µM (inactive); in [6], 26.5 µM (inactive). The GI50 in test [7] is 24.2 µM (inactive); in test [8], 27.7 µM (inactive); in test [9], 21 µM (inactive); in test [10] it was 16.9 µM (inactive); in [11], 15.7 µM (inactive); in [12], 27.8 µM (inactive). Besides, the GI50 in [13] was 15.3 µM (inactive); in test [14], 33.5 µM (inactive); in test [15], 15.2 µM (inactive); in test [16], 28.4 µM (inactive); in test [17], 15.9 µM (inactive); in test [18] it was 16.2 µM (inactive). In test [19], this compound had a GI50 of 19.1 µM.
With `CC(C)Oc1c(N(Cc2ccccc2)c2ccccc2C2SCCCS2)c(=O)c1=O`, the GI50 in test [1] was 5.56 µM (inactive); in test [2] it was 6.81 µM (inactive); in test [3], 4.24 µM (inactive); in test [4], 3.5 µM (inactive); in [5] it was 6.05 µM (inactive); in [6] it was 3.96 µM (inactive). In addition, the GI50 is 6.9 µM (inactive) in test [7]; 8.63 µM (inactive) in test [8]; 2.74 µM (inactive) in [9]; 4.89 µM (inactive) in test [10]; 3.65 µM (inactive) in test [11]; 2.51 µM (inactive) in test [12]. The GI50 in test [13] is 1.88 µM (inactive); in test [14], 4.51 µM (inactive); in [15] it was 2.9 µM (inactive); in [16] it was 5.79 µM (inactive); in test [17], 3.63 µM (inactive); in test [18], 3.32 µM (inactive). Also, the GI50 in test [19] is 3.71 µM.
As for `CCN(CC)c1ccc2cc(-c3nc(O)c4ccccc4n3)c(=N)oc2c1`, the GI50 in test [1], in test [2], in test [3], in test [4], in test [5] and in [6] was > 100 µM (inactive) in each case. Moreover, the GI50 in test [7], in test [8], in [9], in [10], in [11] and in [12] was > 100 µM (inactive) throughout. Besides, the GI50 in test [13], in test [14], in test [15], in test [16], in [17] and in test [18] was > 100 µM (inactive) throughout. In test [19], the GI50 is more than 100 µM.
